# Reference: patent US20240288345A1, “FLUORESCENT STAINING METHOD” (OSAKA UNIVERSITY, priority 2022, published 2024)
# What was measured:
# [1] = test system: goblet cell mucus of human colorectal mucosal tissue; experiment: Fluorescent staining of frozen sliced specimen of human colonic mucosa (Test Example A)
# Protocol: A tissue to be stained was washed with phosphate buffered saline (PBS), was immersed in 30% (w/v) of sucrose in the PBS, and was frozen in O.C.T. COMPOUND (45833, Sakura Finetek) at −80° ° C. overnight. The frozen tissue was cut into a thickness of 10 μm with a cryostat (CM3050 S, Leica Biosystems). The resultant frozen section was washed with PBS three times, and was subjected to pretreatment with a 0.5% solution of periodic acid (HIOA) (86171, MUTO PURE CHEMICALS CO., LTD.) at room temperature for 30 minutes. The section was washed with PBS three times, and was incubated in FAM hydrazide, 5-isomer((50 µM, 24170, BroadPharm, in this description, sometimes referred to as “FAM hydrazide”), Alexa Fluor 488 hydrazide (50 μM, A10436, ThermoFisher Scientific, Inc.), BDP FL hydrazide (50 μM, 11470, Lumiprobe Corporation), or fluorescein (50 µM, FUJIFILM Wako Pure Chemical Corporation) diluted with PBS at room temperature overnight. After that, the section was washed with PBS and an image thereof was obtained with a confocal microscope.
# A section of a human colorectal mucosal tissue sampled from the non-tumor region of a surgical specimen of colorectal cancer was subjected to fluorescent staining through use of FAM hydrazide, Alexa Fluor 488 hydrazide, BDP FL hydrazide, or fluorescein serving as a fluorescent skeleton as a stain.
# [2] = test system: human colonic mucosal tissue; experiment: Clearing and whole-mount 3D fluorescent staining of human colonic mucosal tissue (Test Example B)
# Protocol: CUBIC-L and CUBIC-R+reagents (T3740 and T3741, Tokyo Chemical Industry Co., Ltd.) were used in tissue clearing. Atissue removal procedure is simply described below.
# A formaldehyde-fixed tissue specimen was washed with PBS, and was subsequently immersed in a 50% (v/v) CUBIC-L reagent (mixture containing water and the CUBIC-L reagent at 1:1) overnight. Further, the specimen was immersed in the CUBIC-L reagent at 37° C. for 5 days or 6 days while being gently shaken. Next, each of those specimens was washed with PBS, was immersed in 30% (w/v) of sucrose in the PBS, and was frozen in O.C.T. COMPOUND at −80° C. overnight. […] After having been washed with PBS, the specimen was stained by being gently shaken at room temperature for 2 days or 3 days together with FAM hydrazide, 5-isomer (50 μM), Compound 1 (50 μM), Alexa Fluor 488 hydrazide (50 µM), BDP FL hydrazide ([…]), or fluorescein (50 µM) in PBS containing 0.5% (v/v) of Triton X-100 (12967, Nacalai Tesque, Inc.). When nuclear counterstaining was performed, propidium iodide (PI) (10 μg/mb, P21493, Life Technologies Corporation) or RedDot-2 (1:100, 40061-T, Biotium, Inc.) was also added to the staining solution. After the staining step, the specimen was washed with PBS, and was immersed in a 50% (v/v) CUBIC-R+reagent (mixture containing water and the CUBIC-R+reagent at 1:1) overnight. Further, the specimen was immersed in the CUBIC-R+reagent for 1 day or 2 days while being gently shaken. A cleared tissue specimen thus obtained was subjected to 3D imaging with a confocal fluorescence microscope or a light-sheet fluorescence microscope. A wavelength of 488 nm was applied as the excitation wavelength of each of FAM hydrazide, Compound 1, Alexa Fluor 488 hydrazide, BDP FL hydrazide, and fluorescein, and the fluorescence detection wavelength range of each of these materials was from 490 nm to 562 nm.
# A 3D image was obtained by using a confocal microscope (Zeiss LSM880 Confocal/Multiphoton, Carl Zeiss AG) or a light-sheet fluorescence microscope (Zeiss Lightsheet 7, Carl Zeiss AG), All pieces of raw image data were reconstructed and analyzed with Imaris software (version 9.2.1, Bitplane Inc.).
# A human colonic mucosal tissue after its formalin fixation, which had been excised into a square about 4 mm on a side, was subjected to clearing treatment and to whole-mount 3D tissue staining through use of FAM hydrazide, Alexa Fluor 488 hydrazide, BDP FL hydrazide, or fluorescein as a stain.
# [3] = test system: neutrophil in colonic tissue analyte; experiment: Whole-mount 3D staining of ulcerative colitis colonic tissue analyte (Test Example C); design: species or system human; details: cleared
# Protocol: (§1) A formaldehyde-fixed tissue specimen was washed with PBS, and was subsequently immersed in a 50% (v/v) CUBIC-L reagent (mixture containing water and the CUBIC-L reagent at 1:1) overnight. Further, the specimen was immersed in the CUBIC-L reagent at 37° C. for 5 days or 6 days while being gently shaken. Next, each of those specimens was washed with PBS, was immersed in 30% (w/v) of sucrose in the PBS, and was frozen in O.C.T. COMPOUND at −80° C. overnight. Next, the frozen specimen was thawed, was washed with PBS, and was immersed in a 0.5% solution of periodic acid (HIO;) (86171, MUTO PURE CHEMICALS CO., LTD.) at room temperature for 30 minutes. […] A cleared tissue specimen thus obtained was subjected to 3D imaging with a confocal fluorescence microscope or a light-sheet fluorescence microscope. A wavelength of 488 nm was applied as the excitation wavelength of each of FAM hydrazide, Compound 1, Alexa Fluor 488 hydrazide, BDP FL hydrazide, and fluorescein, and the fluorescence detection wavelength range of each of these materials was from 490 nm to 562 nm. […]
# [4] = test system: colonic tissue analyte, crypt structure and neutrophils; experiment: 3D imaging of ulcerative colitis histopathological analyte (Test Example D); design: species or system human; details: cleared, whole-mount 3D staining
# Protocol: as §1
# [5] = test system: human colonic polyp; experiment: 3D imaging of human colonic polyp with light-sheet microscope (Test Example G); details: with propidium iodide counterstain
# Protocol: as §1
# [6] = test system: fungal hyphae in a pulmonary aspergillosis tissue; experiment: 3D imaging of fungal hyphae (Test Example H); details: with RedDot 2 counterstain, confocal microscope
# Protocol: as §1
smiles,measurement,setting,value
"NNC(=O)c1ccc2c(c1)C(=O)OC21c2ccc(O)cc2Oc2cc(O)ccc21 [FAM hydrazide, FAM hydrazide, 5-isomer]","Fluorescent staining signal in goblet cell mucus, sliced section","[1]; 10 μm frozen section, 0.5% periodic acid pretreatment, 50 μM overnight",clear positive image
same,"Fluorescent staining signal without oxidation treatment with HIO4, sliced section",[1]; no HIO4 oxidation,not obtained
same,3D imaging signal of cleared tissue,"[2]; CUBIC clearing, periodic acid, 50 μM, 2-3 days, excitation 488 nm",clear stereoscopic image
same,Staining of goblet cell and basement membrane in crypt of colonic mucosa,"[2]; cleared tissue, 3D staining",clearly stained
same,Staining of neutrophil in 3D tissue staining,"[2]; cleared tissue, confirmed with anti-MPO antibody",clearly stained
same,3D staining signal without oxidation treatment with HIO4,"[2]; no HIO4 oxidation, CUBIC reagent",no positive signal was observed
same,Staining property for a sample having a thickness after clearing treatment,[2]; summary of Examples and Test Examples,significantly excellent
same,Stained image of neutrophil in 3D imaging,[3],clear stained image
same,Three-dimensional observation of pathological crypt structure of ulcerative colitis,[4],enabled the three-dimensional observation
same,Observation of surface layer structure of human colonic polyp,[5],able to be observed
same,Visualization of structures of fungal hyphae,[6],clearly visualized
